# Laboratory results: patent US20070203233A1, “NOVEL 2-(alpha-N-PENTANONYL)BENZOATES, THEIR PREPARATION AND USE” (priority 2004, published 2007)
# Marks after values point to notes of the source that are not given here.
# How the values were obtained:
# The Stability to Light = type: physicochemical; conditions: 10 days, HPLC
# Thermal Stability = type: physicochemical; conditions: 60° C., 10 days, HPLC
# [1] = system: model rats of middle cerebral artery thrombosis (MCAT); experiment: Effects on neural symptoms of MCAT rats; type: in vivo, SD rats; parameters: key to Scores 6 hours / Scores 24 hours: 0/1 per test, summed (max 4); higher = more severe behavioral disorder; conditions: for Scores 6 hours: behavioral score 6 h after operation (full mark 4); for Scores 24 hours: behavioral score 24 h after operation (full mark 4); for % inhibition at hour 24: vs. model group
# Protocol: (1) Grouping and administration: […] Preventive administration was conducted by gavage one time per day for 3 days prior to the model being established. The model was established on day 4, and a dosage of one day was administered by gavage immediately after the model was established. Another dosage of one day was again administered by gavage 12 hours after the model was established. Equivalent amount of the vehicle was administered to the control group. […] Description of technique and early neuropathological consequences following middle cerebral artery occlusion. J Cereb Blood Flow Metab, 1981, 1: 53), and fixed in lateral decubitus position. A bowtype incision of 1.5 cm long was made at the midpoint between canthus and exterior auditory canal. Temporalis was broken and incised to expose temporal bone. […] The filter paper was removed after 30 min when the vascular became black. The localized tissue was washed with physiological brine, and sutured layer by layer. Then rats were placed back into the cages. By following the modified method of Bederson et al. […] (2) The animals were placed onto a smooth ground, and the resistance of contralateral shoulder to push was examined. “0” was recorded if the resistance of both shoulders were equal and strong; and “1” was recorded if the resistance of contralateral shoulder to push was decreased. […] (4) The tail of the rat was lifted 30 cm high away from the ground, and “1” was recorded if the animals ceaselessly circled contralaterally. “4” was full mark in accordance with the above-mentioned standard. The higher the score was, more severe the behavioral disorder of the animal was. 4. Results: The behavioral scores in each group were compared by student t test.
# [2] = system: model rats of middle cerebral artery thrombosis (MCAT); experiment: Effects on cerebral infarct area of MCAT rats; type: in vivo, SD rats; conditions: for Cerebral infarct tissue weight/total brain weight (%): 24 h after operation, TTC staining; for Inhibition (%): cerebral infarct vs. model group; for cerebral infarct as compared with the model group (in words): 50 mg/kg, P<0.05
# [3] = system: thrombus of artery-vein bypass in rats; experiment: Effects on thrombosis of artery-vein bypass in rats; type: in vivo, SD rats; conditions: for Dry-weight of thrombus / Wet-weight of thrombus: once per day for 3 days; for Inhibition (%) of dry-weight of thrombus / Inhibition (%) of wet-weight of thrombus: vs. thrombus model group
# Protocol: Testing methods are described in Chen-Qi, “Methodology for Pharmacological Research of Chinese Medicine”,People's Medical Publishing House, Sep. 1993, 1st ed., page 510. […] Equivalent amount of the vehicle was administered to the thrombus model group. The operation was conducted immediately after the final administration. […] The operation was conducted to separate the right common carotid artery and the left external jugular vein. A pre-weighed suture # 0 of 8 cm long was placed into the middle part of a polyethylene tube of 10 cm long. Then the tube was filled with normal saline, and connected at both ends to the cannula of 3 cm long filled with normal saline. One end of the tube was inserted into the left external jugular vein, and another end was inserted into the right common carotid artery. The blood flowed from the right common carotid artery to the polyethylene tube, and then flow back to the left external jugular vein, so as to construct a bypass circulation. […] The wet-weight of the thrombus was obtained by subtracting the weight of the suture and the paper from this total wet weight. […] The thrombus was taken out and weighed to obtain a total dry weight. The dry weight of the thrombus was obtained by subtracting the weight of the suture and the paper form this total dry weight. The results in each group were compared by student's t test. […] Testing Results
# [4] = The Stability of Aqueous Solution; conditions: for wt % decomposed product: aqueous solution 0.2 mg/ml
# Protocol: Compounds were dissolved in water to form aqueous solutions in a concentration of 0.2 mg/ml, and the amount of decomposed products were measured.
# The amounts of decomposed products were determined in accordance with the test described in Pharmacopoeia of P.R. China, 2000 edition, appendix VD of part two, by HPLC method, C18 column, mobile phase of acetonitrile:0.02M sodium dihydrogen phosphate=40:60, detecting wavelength of 230 nm, flow rate of 1 ml/min.
Compound,"decomposed product detected, stability to light (in words) (The Stability to Light)","decomposed product detected, thermal stability (in words) (Thermal Stability)",Scores 6 hours ([1]; 50 mg/kg by gavage),Scores 24 hours ([1]; 50 mg/kg by gavage),% inhibition at hour 24 ([1]; 50 mg/kg by gavage),Scores 6 hours ([1]; 100 mg/kg by gavage),Scores 24 hours ([1]; 100 mg/kg by gavage),% inhibition at hour 24 ([1]; 100 mg/kg by gavage),Scores 6 hours ([1]; 200 mg/kg by gavage),Scores 24 hours ([1]; 200 mg/kg by gavage),% inhibition at hour 24 ([1]; 200 mg/kg by gavage),Cerebral infarct tissue weight/total brain weight (%) ([2]; 50 mg/kg by gavage),Inhibition (%) ([2]; 50 mg/kg by gavage),cerebral infarct as compared with the model group (in words) [2],Cerebral infarct tissue weight/total brain weight (%) ([2]; 100 mg/kg by gavage),Inhibition (%) ([2]; 100 mg/kg by gavage),Cerebral infarct tissue weight/total brain weight (%) ([2]; 200 mg/kg by gavage),Inhibition (%) ([2]; 200 mg/kg by gavage),Dry-weight of thrombus ([3]; 50 mg/kg by gavage),Wet-weight of thrombus ([3]; 50 mg/kg by gavage),other results
"CCCCC(=O)c1ccccc1C(=O)O.CCCCC(=O)c1ccccc1C(=O)O.c1ccc(CNCCNCc2ccccc2)cc1 [2-(α-n-pentanonyl)benzoate of N,N′-dibenzylethylene diamine]",no decomposed product,no decomposed product,3.45 ± 0.69,2.91 ± 0.70,20.05%,3.45 ± 0.52,2.36 ± 0.67,36.73%,3.27 ± 0.79,2.55 ± 0.52,31.64%,5.14 ± 2.17 %,30.63%,significantly reduced,4.68 ± 1.69 %,41.06%,4.60 ± 1.26 %,39.55%,39.0 ± 10.8 mg,207.1 ± 45.3 mg,Inhibition (%) of dry-weight of thrombus ([3]; 50 mg/kg by gavage): 23.98%; Inhibition (%) of wet-weight of thrombus ([3]; 50 mg/kg by gavage): 20.10%; Dry-weight of thrombus ([3]; 100 mg/kg by gavage): 29.9 ± 13.6 mg; Wet-weight of thrombus ([3]; 100 mg/kg by gavage): 157.9 ± 67.9 mg; Inhibition (%) of dry-weight of thrombus ([3]; 100 mg/kg by gavage): 41.72%; Inhibition (%) of wet-weight of thrombus ([3]; 100 mg/kg by gavage): 39.08%; Dry-weight of thrombus ([3]; 200 mg/kg by gavage): 32.3 ± 12.5 mg; Wet-weight of thrombus ([3]; 200 mg/kg by gavage): 191.7 ± 34.8 mg; Inhibition (%) of dry-weight of thrombus ([3]; 200 mg/kg by gavage): 37.04%; Inhibition (%) of wet-weight of thrombus ([3]; 200 mg/kg by gavage): 26.04%
Calcium 2-(α-hydroxypentyl)benzoate,–,–,3.45 ± 0.52,3.36 ± 0.50,7.69%,3.55 ± 0.52,3.09 ± 0.70,17.16%,3.45 ± 0.52,2.91 ± 0.54,21.98%,6.39 ± 2.33%,13.77%,–,5.82 ± 1.90 %,26.70%,5.41 ± 1.77 %,28.91%,–,–,–
"CCCCC(=O)c1ccccc1C(=O)[O-].[K+] [Potassium 2-(α-n-pentanonyl)benzoate, potassium 2-(α-n-pentanonyl)benzoate]",no decomposed product,no decomposed product,3.27 ± 0.79,2.91 ± 0.70,–,3.36 ± 0.67,2.82 ± 0.75,–,3.20 ± 0.63,"2.10 ± 0.32***^,s",–,5.63 ± 1.52 %,24.02%,significantly reduced,5.09 ± 2.04 %,35.89%,4.38 ± 1.54 %,42.44%,38.3 ± 15.4 mg,208.8 ± 45.3 mg,Inhibition (%) of dry-weight of thrombus ([3]; 50 mg/kg by gavage): 25.34%; Inhibition (%) of wet-weight of thrombus ([3]; 50 mg/kg by gavage): 19.44%; Dry-weight of thrombus ([3]; 100 mg/kg by gavage): 35.6 ± 14.0 mg; Wet-weight of thrombus ([3]; 100 mg/kg by gavage): 192.6 ± 41.2 mg; Inhibition (%) of dry-weight of thrombus ([3]; 100 mg/kg by gavage): 30.60%; Inhibition (%) of wet-weight of thrombus ([3]; 100 mg/kg by gavage): 25.69%; Dry-weight of thrombus ([3]; 200 mg/kg by gavage): 28.3 ± 16.3 mg; Wet-weight of thrombus ([3]; 200 mg/kg by gavage): 157.0 ± 51.4 mg; Inhibition (%) of dry-weight of thrombus ([3]; 200 mg/kg by gavage): 44.83%; Inhibition (%) of wet-weight of thrombus ([3]; 200 mg/kg by gavage): 39.43%; decomposed product detected (in words) ([4]; after exposed to water for 24 hours): no decomposed product; wt % decomposed product ([4]; 0 hr): 0 wt %; wt % decomposed product ([4]; 1 hr): 0 wt %; wt % decomposed product ([4]; 2 hr): 0 wt %; wt % decomposed product ([4]; 4 hr): 0 wt %; wt % decomposed product ([4]; 16 hr): 0 wt %; wt % decomposed product ([4]; 24 hr): 0 wt %
